Columns and labels:
D816V Kit = D816V Kit (Homo sapiens (Human), UniProt P10721, D816V); test: Kit D816V assay at Km (Caliper electrophoretic mobility shift); type: biochemical; conditions: for IC50: D816V Kit 0.5 nM, 15 uM ATP (Km), 1 uM Srctide, 25 C, 90 minutes, read-out: INH-KITD816V ENZ-KM IC50 (nM) (Num); for times more potent against the D816V mutant than against the wild-type Kit: D816V Kit versus wild-type Kit, enzyme assays at Km
Description: (§1) In order to assess the activity of chemical compounds against the relevant kinase of interest, the Caliper LifeSciences electrophoretic mobility shift technology platform is used. Fluorescently labeled substrate peptide is incubated in the presence of kinase and ATP so that a […] proportion of the peptide is phosphorylated. At the end of the reaction, the mix of phosphorylated (product) and non-phosphorylated (substrate) peptides are passed through the microfluidic system of the Caliper EZ Reader 2, under an applied potential difference. The presence of the phosphate group on the product peptide provides a difference in mass and charge between those of the substrate peptide, resulting in a separation of the substrate and product pools in the sample. As the pools pass a LEDS within the instrument, these pools are detected and resolved as separate peaks. The ratio between these peaks therefore reflects the activity of the chemical matter at that concentration in that well, under those conditions.
(§2) The reaction was stopped by the addition of 70 ul of Stop buffer (100 mM HEPES pH 7.5, 0.015% Brij 35, 35 mM EDTA and 0.2% of Coating Reagent 3 (Caliper Lifesciences)). The plate was then read on a Caliper EZReader 2 (protocol settings: −1.9 psi, upstream voltage −700, downstream voltage −3000, post sample sip 35 s).

wild type Kit = wild type Kit (Homo sapiens (Human), UniProt P10721); test: Kit wild type assay at Km (Caliper electrophoretic mobility shift); type: biochemical; conditions: wild type Kit 2 nM, 400 uM ATP (Km), 1 uM Srctide, 25 C, 90 minutes; read-out: INH-KITWT ENZ-KM IC50 (nM) (Num)
Sequence of wild type Kit (P10721 26-976): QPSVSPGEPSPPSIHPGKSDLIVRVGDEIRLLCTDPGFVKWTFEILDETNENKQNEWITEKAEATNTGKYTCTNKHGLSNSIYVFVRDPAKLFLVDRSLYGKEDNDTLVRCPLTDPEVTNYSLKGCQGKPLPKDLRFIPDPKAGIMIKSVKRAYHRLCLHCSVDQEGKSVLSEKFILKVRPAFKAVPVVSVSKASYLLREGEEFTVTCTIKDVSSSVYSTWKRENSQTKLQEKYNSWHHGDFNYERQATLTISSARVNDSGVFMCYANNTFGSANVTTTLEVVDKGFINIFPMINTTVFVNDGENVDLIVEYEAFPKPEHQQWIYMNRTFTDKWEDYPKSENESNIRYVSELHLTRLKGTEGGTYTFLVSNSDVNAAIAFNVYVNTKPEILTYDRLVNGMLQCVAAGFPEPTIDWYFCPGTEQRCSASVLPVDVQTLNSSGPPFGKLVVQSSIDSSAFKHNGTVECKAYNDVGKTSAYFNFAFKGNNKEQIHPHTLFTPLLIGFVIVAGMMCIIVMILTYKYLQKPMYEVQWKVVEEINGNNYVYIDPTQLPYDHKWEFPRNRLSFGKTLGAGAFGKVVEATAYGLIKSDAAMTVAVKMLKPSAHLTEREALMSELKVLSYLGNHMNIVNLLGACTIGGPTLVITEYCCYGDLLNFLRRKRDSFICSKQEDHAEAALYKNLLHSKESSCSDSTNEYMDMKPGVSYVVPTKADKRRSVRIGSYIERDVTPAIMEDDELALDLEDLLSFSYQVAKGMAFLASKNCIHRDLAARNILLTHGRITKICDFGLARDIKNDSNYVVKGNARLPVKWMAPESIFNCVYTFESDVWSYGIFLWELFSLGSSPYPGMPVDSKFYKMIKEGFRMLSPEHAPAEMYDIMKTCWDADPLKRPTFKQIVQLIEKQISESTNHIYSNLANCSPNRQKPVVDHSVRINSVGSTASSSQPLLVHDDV
Description: as §1, §2

Sequence of D816V Kit (P10721 26-976 D816V): as the sequence (P10721 26-976) above, with D791V counted along it

Row | SMILES | IC50 (D816V Kit) [nM] | IC50 (wild type Kit) [nM] | times more potent against the D816V mutant than against the wild-type Kit (D816V Kit)
1 | COc1cc2ncnc(N3CCN(c4ncc(NC(C)c5ccccc5)cn4)CC3)c2cc1OC (stereo not shown) [Compound 56] | 10 to 100 | > 1000 | –
2 | COc1cc2ncnc(N3CCN(c4ncc(Cc5ccc(C(C)(C)C)cc5)cn4)CC3)c2cc1OC [Compound 81] | 10 to 100 | > 1000 | –
3 | COc1cc2ncnc(N3CCN(c4ncc(OCc5ccsc5)cn4)CC3)c2cc1OC [Compound 44] | 10 to 100 | 100 to 1000 | –
4 | COc1cc2ncnc(N3CCN(c4ncc(NCc5ccc(C)cc5)cn4)CC3)c2cc1OC [Compound 53] | 10 to 100 | 100 to 1000 | –
5 | COc1cc2ncnc(N3CCN(c4ncc(Cc5ccccc5)c(=O)[nH]4)CC3)c2cc1OC[C@H]1CNCCO1 [Compound 120] | < 1 | < 10 | –
6 | CN1CCC(COc2ccc3ncnc(N4CCN(c5ncc(Cc6ccccc6)c(=O)[nH]5)CC4)c3c2)CC1 [Compound 100] | 1.01 to 10 | 100 to 1000 | –
7 | COc1cc2ncnc(N3CCN(c4ncc(Nc5ccc(F)c(F)c5)cn4)CC3)c2cc1OC [Compound 71] | 1.01 to 10 | 100 to 1000 | –
8 | COc1cc2ncnc(N3CCN(c4ncc(OCC5CC5)cn4)CC3)c2cc1OC [Compound 6] | > 100 | > 1000 | –
9 | COc1cc2ncnc(N3CCN(c4ncc(Nc5ccccn5)cn4)CC3)c2cc1OC [Compound 15] | 10 to 100 | 100 to 1000 | –
10 | COc1cc2ncnc(N3CCN(c4ncc(Oc5ccc(F)cc5)cn4)CC3)c2cc1OCC1CCN(C)CC1 [Compound 133] | 1.01 to 10 | 11 to 100 | –
11 | COc1cc2ncnc(N3CCN(c4ncc(OCc5ccc(F)cc5)cn4)CC3)c2cc1OC [Compound 69] | 10 to 100 | 100 to 1000 | –
12 | COc1cc2ncnc(N3CCN(c4ncc(C(=O)Nc5ccccc5)cn4)CC3)c2cc1OC [Compound 51] | 10 to 100 | > 1000 | –
13 | COc1cc2ncnc(N3CCN(c4ncc(Nc5cccc(C)c5)cn4)CC3)c2cc1OC [Compound 33] | 10 to 100 | 100 to 1000 | –
14 | COc1cc2ncnc(N3CCN(c4ncc(O[C@H](C)c5ccccc5)cn4)CC3)c2cc1OC [Compound 59] | 1.01 to 10 | 100 to 1000 | –
15 | COc1cc2ncnc(N3CCN(c4ncc(OCc5ccccc5C)cn4)CC3)c2cc1OC [Compound 65] | 10 to 100 | > 1000 | –
16 | COc1cc2ncnc(N3CCN(c4ncc(Nc5ccc(C)cc5)cn4)CC3)c2cc1OC [Compound 31] | 1.01 to 10 | 100 to 1000 | –
17 | COc1cc2ncnc(N3CCN(c4ncc(N5CCCc6ccccc65)cn4)CC3)c2cc1OC [Compound 74] | 10 to 100 | 100 to 1000 | –
18 | COc1cc2ncnc(N3CCN(c4ncc(OCc5ccc(C(C)(C)C)cc5)cn4)CC3)c2cc1OC [Compound 94] | > 100 | > 1000 | –
19 | COc1cc2ncnc(N3CCN(c4ncc(OCc5ccc(C#N)cc5)cn4)CC3)c2cc1OC [Compound 73] | > 100 | > 1000 | at least 100 times
20 | COc1cc2ncnc(N3CCN(c4ncc(Nc5ccc(C#N)cc5)cn4)CC3)c2cc1OC [Compound 47] | 10 to 100 | > 1000 | at least 100 times
21 | c1ccc(Cc2cnc(N3CCN(c4ncnc5c4CNC5)CC3)nc2)cc1 [Compound 2] | > 100 | > 1000 | –
22 | COc1cc2ncnc(N3CCN(c4ncc(OCc5ccccc5)cn4)[C@H](C)C3)c2cc1OC [Compound 60] | 10 to 100 | 100 to 1000 | –
23 | COc1cc2ncnc(N3CCN(c4ncc(OCc5ccc(C)cc5)cn4)CC3)c2cc1OC [Compound 62] | 10 to 100 | > 1000 | at least 100 times
24 | COc1cc2ncnc(N3CCN(c4ncc(O[C@@H](C)c5ccccc5)cn4)CC3)c2cc1OC [Compound 64] | 10 to 100 | > 1000 | –
25 | c1ccc(Cc2cnc(N3CCN(c4ncnc5c4CN(CC4CCNCC4)C5)CC3)nc2)cc1 [Compound 50] | > 100 | > 1000 | less than 5 times
26 | COc1cc2ncnc(N3CCN(c4ncc(OCc5ccccc5)cn4)C[C@H]3C)c2cc1OC [Compound 67] | > 100 | > 1000 | less than 5 times

The remaining lines, values ahead:

Row | IC50 (D816V Kit) [nM] | IC50 (wild type Kit) [nM] | times more potent against the D816V mutant than against the wild-type Kit (D816V Kit) | SMILES
27 | 1.01 to 10 | 100 to 1000 | – | COc1cc2ncnc(N3CCN(c4ncc(Cc5ccc(OC(F)F)cc5)cn4)CC3)c2cc1OC [Compound 86]
28 | < 1 | 11 to 100 | – | COc1cc2ncnc(N3CCN(c4ncc(Cc5ccccc5)cn4)CC3)c2cc1OCC1CN(C)CCO1 (stereo not shown) [Compound 117]
29 | 1.01 to 10 | 11 to 100 | – | COc1cc2ncnc(N3CCN(c4ncc(N(C)Cc5ccccc5)cn4)CC3)c2cc1OC [Compound 52]
30 | < 1 | < 10 | – | COc1cc2ncnc(N3CCN(c4ncc(Cc5ccccc5)c(N)n4)CC3)c2cc1OC [Compound 29]
31 | < 1 | 11 to 100 | – | COc1cc2ncnc(N3CCN(c4ncc(Cc5ccccc5)cn4)CC3)c2cc1OCC1CCNC1 (stereo not shown) [Compound 89]
32 | 10 to 100 | 100 to 1000 | – | COc1cc2ncnc(N3CCN(c4ncc(N5CCc6ccccc65)cn4)CC3)c2cc1OC [Compound 49]
33 | 1.01 to 10 | 11 to 100 | – | COc1cc2ncnc(N3CCN(c4ncc(Cc5ccccc5)cn4)CC3)c2cc1OC1CCNCC1 [Compound 91]
34 | 10 to 100 | 100 to 1000 | – | COc1cc2ncnc(N3CCN(c4ncc(NC(=O)Cc5ccccc5)cn4)CC3)c2cc1OC [Compound 76]
35 | 1.01 to 10 | 11 to 100 | – | COc1cc2ncnc(N3CCN(c4ncc(Cc5ccccc5)cn4)CC3)c2cc1OCCN1CCN(C)CC1 [Compound 126]
36 | 1.01 to 10 | 11 to 100 | – | COc1cc2ncnc(N3CCN(c4ncc(Cc5ccc(F)cc5)cn4)CC3)c2cc1OC [Compound 38, 4-(4-(5-(4-fluorobenzyl)pyrimidin-2-yl)piperazin-1-yl)-6,7-dimethoxyquinazoline]
37 | > 100 | > 1000 | – | COc1cc2ncnc(N3CCN(c4ncc(-c5ccccc5)cn4)CC3)c2cc1OC [Compound 9]
38 | 10 to 100 | > 1000 | at least 100 times | COc1cc2ncnc(N3CCN(c4ncc(Cc5ccccc5)cn4)CC3)c2cc1C(N)=O [Compound 20]
39 | > 100 | > 1000 | – | COc1cc2ncnc(N3CCN(c4ncc(Cc5ccccc5)cn4)C[C@@H]3C)c2cc1OC [Compound 27]
40 | < 1 | 11 to 100 | – | COc1cc2ncnc(N3CCN(c4ncc(Cc5ccccc5)cn4)CC3)c2cc1OCC1CN(C)C1 [Compound 90]
41 | 1.01 to 10 | 11 to 100 | – | COc1ccc(Cc2cnc(N3CCN(c4ncnc5cc(OC)c(OC)cc45)CC3)nc2)cc1 [Compound 58]
42 | < 1 | < 10 | – | COc1cc2ncnc(N3CCN(c4ncc(Cc5ccccc5)c(N)n4)CC3)c2cc1OC[C@@H]1CCCN(C)C1 [Compound 124]
43 | > 100 | > 1000 | less than 5 times | COc1cc2ncnc(N3CCN(c4ncc(Cc5ccccc5)cn4)C(=O)C3)c2cc1OC [Compound 21]
44 | 1.01 to 10 | 11 to 100 | – | COc1cc2ncnc(N3CCN(c4ncc(Cc5ccccc5)cn4)CC3)c2cc1OC[C@@H]1CNCCO1 [Compound 106]
45 | < 1 | 11 to 100 | at least 100 times | COc1cccc(Cc2cnc(N3CCN(c4ncnc5cc(OC)c(OC)cc45)CC3)nc2)c1 [Compound 57]
46 | > 100 | > 1000 | less than 5 times | COc1cc2ncnc(N3CCN(c4ncc(Cc5ccccc5)cn4)C[C@H]3C)c2cc1OC [Compound 28]
47 | 1.01 to 10 | 100 to 1000 | – | COc1cc2ncnc(N3CCN(c4ncc(Cc5ccccc5)cn4)CC3)c2cc1OC1CCN(C)C1 (stereo not shown) [Compound 92]
48 | < 1 | 11 to 100 | – | COc1cc2ncnc(N3CCN(c4ncc(Cc5ccccc5)cn4)CC3)c2cc1OCC1CCCN(C)C1 (stereo not shown) [Compound 114]
49 | < 1 | 11 to 100 | – | COc1cc2ncnc(N3CCN(c4ncc(Cc5ccccc5)cn4)CC3)c2cc1OCCN1CCCC1=O [Compound 110]
50 | 1.01 to 10 | 11 to 100 | – | COc1cc2ncnc(N3CCN(c4ncc(Oc5ccccc5)cn4)CC3)c2cc1OC [Compound 14, 6,7-dimethoxy-4-(4-(5-phenoxypyrimidin-2-yl)piperazin-1-yl)quinazoline]
51 | 1.01 to 10 | 100 to 1000 | – | COc1cc2ncnc(N3CCN(c4ncc(Cc5cccc(C(N)=O)c5)cn4)CC3)c2cc1OC [Compound 75]
52 | 1.01 to 10 | 11 to 100 | – | COc1cc2c(N3CCN(c4ncc(Cc5ccccc5)cn4)CC3)ncnc2cc1OCC1(C)COC1 [Compound 93]
53 | 1.01 to 10 | 11 to 100 | – | COc1cc2ncnc(N3CCN(c4ncc(Cc5ccccc5)cn4)CC3)c2cc1OCCN1CCNCC1 [Compound 116]

Reference: patent US9994552B2, “Compositions useful for treating disorders related to kit” (BLUEPRINT MEDICINES CORPORATION, priority 2013, dated 2018)
